# Tests used:
# Format in all cases: biochemical
# [1] = target: T1, FIXa (Homo sapiens, UniProt P00740); test: FXa generation assay with human FIXa; design: purchased Haematologic Technologies
# Source text: FXa generation was utilized to assess the capability of the compounds of the present disclosure to enhance the catalytic activities of FIXa and/or FVIIa.
# To measure the catalytic activity of FIXa, FIXa was mixed with FX and phospholipids in the presence of calcium chloride. Under these conditions FIXa cleaves the zymogen FX into the active form FXa.
# The generation of FXa is monitored by the change in absorbance of the reaction at 405 nm due to the presence of a cleavable FXa chromogenic substrate (S-2765; Z-D-Arg-Gly-Arg-pNA; cleavage of p-nitroaniline). […] The kit contains all the FXa generation components, however, FIXa and FX obtained from this kit are from a bovine origin and were replaced with purified human FIXa or human FVIIa and human FX (Haematologic Technologies).
# The assay was also modified to enhance the screening throughput. Instead of the sequential addition, all the assay components were mixed and added simultaneously to the purified compound to be assayed. A 125 μl reaction mix of the assay components was prepared in the buffer supplied by the manufacturer (50 mM Tris 7.3, and 1% BSA). […] The reaction mix (125 ul) was then added to 25 ul of compound diluted in water in a Costar-3651 flat bottom 96-well plate. […] The absorbance was monitored over a period of 1 hour at 405 nm using a plate reader (Synergy 2, Biotek).
# The 405 nm absorbance data were then analyzed to obtain the slope of the first derivative which reflects the rate of change in absorbance. The first derivative slope data for each compound concentration were plotted against the compound concentration and fitted to a four-parameter equation to obtain the EC50 and Vmax values for each compound tested.
# [2] = test system: FVIII deficient human plasma; test: Rotational thromboelastometry (ROTEM) in FVIII-deficient human plasma; details: for Clotting time, sec (avg.) / α-angle, degrees (avg.): human HemA plasma, lyophilized platelets, 10 fM lipTF
# Method: Compounds of the present disclosure were tested by rotational thromboelastometry to evaluate coagulation parameters such as clotting time (CT), α-angle, clot formation time (CFT), maximum clot firmness (MCF). Briefly, lyophilized and citrated FVIII deficient human plasma (Siemens) was reconstituted with 1 mL of distilled water, allowed to stand for 20 min at RT and mixed well before use. Alternatively, an aliquot of citrated (non-lyophilized) FVIII deficient human plasma (HRF, George King, Precision Biologics, or real-time donors) was thawed for 10 min in a 37° C. water bath and when needed centrifuged at 2800 g for 5 min at 25° C. FVIII deficient plasma was spiked with lyophilized platelets (Helena Laboratories, final concentration 0.5×10^8 cells/ml) and compounds, FVIII, or both compound and FVIII. Dilutions of compounds of the present disclosure and controls, such as FVIII, were prepared in PBS (—Ca, —Mg). Next, 300 μl of the spiked plasma was transferred to a ROTEM cup already containing 20 μl of StarTEM (concentrated calcium chloride solution) and 20 μl of lipidated TF (American Diagnostica, final concentration 10 fM) or Kaolin (Sigma-Aldrich, final concentration 0.4 μg/ml) and recording was initiated. The cups were maintained at 37° C. during the testing.
# [3] = test system: 10% FVIII-deficient human plasma; test: Modified activated partial thromboplastin time (aPTT*) assay; details: aPTT*
# Method: For the activated Partial Thromboplastin Time (aPTT) assay peptides to be tested were first diluted in 10% FVIII-deficient human plasma. For the aPTT* the peptides were diluted in 10% FVIII-deficient human plasma that contained traces of hFIXa (anywhere between 0 and 8.8 nM hFIXa depending on the assay) in Tris/NaCl/BSA buffer. The peptides were incubated for 10 minutes at room temperature and then assayed for clotting on a Sysmex instrument that recorded the clotting time observed for each sample. The times were compared to those of a standard curve derived from standards with known FVIII activity (U/mL) in order to determine the clotting outcome.
# [4] = target: T1, FIXa; test: FXa generation assay with compound 3, phospholipid and Gla-domain dependency; details: compound 3 1 μM
# Source text: Formation of FXa was monitored using a chromogenic substrate as described in the FXa generation assay directly above (see b.1.).
# [5] = target: T1, FIXa; test: Incubation with FIXa in FXa generation assay buffer, LC-MS; details: compound 3 100 μM; FIXa 0, 10 nM, 1 μM; with or without BSA; 3 hours
# Method: The mixtures were then analyzed by LC-MS.
# [6] = target: T1, FIXa; test: Km/Kcat of FIXa for the substrate FX (FXa generation assay); design: purchased Haematologic Technologies; details: compound 1 3 μM, compounds 3, 4, 5 1 μM, compound C 10 μM
# Method: To determine the Km and Kcat of FIXa or FVIIa for the substrate FX, the FXa generation assay described above was used with the following modifications. […] Reactions were set up with varying concentrations of FX ranging between 400 and 0.8 nM and the rates of FXa generation were determined for each peptide at the different FX concentrations tested as described above. […] The catalytic constant (Kcat) was calculated by normalizing the Vmax to the enzyme concentration.
# FIXa was used at 10 nM, and FX was used at 10-1000 nM. The assay was performed in the presence of phospholipids (PL) and calcium chloride.
# [7] = hFIXa 10 nM, FX 10-1000 nM, PL, CaCl2
# T1 sequence (P00740 47-191 limits assumed): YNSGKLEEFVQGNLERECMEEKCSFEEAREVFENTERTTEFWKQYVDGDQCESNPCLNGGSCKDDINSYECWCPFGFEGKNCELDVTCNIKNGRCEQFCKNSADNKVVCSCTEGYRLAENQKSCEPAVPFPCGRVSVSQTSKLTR
# T1 sequence (P00740 227-461 limits assumed): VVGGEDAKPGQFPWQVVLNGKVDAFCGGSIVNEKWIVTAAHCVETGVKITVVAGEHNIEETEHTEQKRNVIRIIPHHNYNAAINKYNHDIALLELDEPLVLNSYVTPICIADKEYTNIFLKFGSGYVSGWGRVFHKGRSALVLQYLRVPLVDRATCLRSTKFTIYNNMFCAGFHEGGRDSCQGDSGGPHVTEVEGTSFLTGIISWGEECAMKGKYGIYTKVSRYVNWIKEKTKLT
sequence,measurement,setting,value
RRAPGKLQCLASYCWLFWTGIA [Compound 3],Vmax,"[1]; FXa generation assay using human FIXa, class symbols",(++++) ((++++)>3)
same,Vmax (mOD/min min),[1]; PL: No,2.77 mOD/min min
same,Vmax (mOD/min min),[1]; PL: Yes,3.90 mOD/min min
same,clotting time and α-angle with neutralizing anti-FVIII antibody,"[2]; 10 uM, polyclonal sheep IgG against human FVIII, 1:100",independent of residual FVIII
same,clotting time compared with FVIII (100% FVIII = 1 IU/mL),"[2]; compound 3 at 5 μM, faster than",> 100 % FVIII
same,α-angle corresponding to FVIII,[2]; compound 3 at 10 μM,about 20 % FVIII
same,"Clotting time, sec (avg.)",[2]; 0.625 μM,792 s
same,"α-angle, degrees (avg.)",[2]; 0.625 μM,29 degrees
same,"Clotting time, sec (avg.)",[2]; 2.5 μM,452 s
same,"α-angle, degrees (avg.)",[2]; 2.5 μM,33 degrees
same,"Clotting time, sec (avg.)",[2]; 5 μM,329 s
same,"α-angle, degrees (avg.)",[2]; 5 μM,38 degrees
same,"Clotting time, sec (avg.)",[2]; 10 μM,205 s
same,"α-angle, degrees (avg.)",[2]; 10 μM,51 degrees
same,Clotting time,[3]; exogenous hFIXa 0.5 nM,115.2 s
same,"Clotting time, sec",[3]; exogenous hFIXa 0.5 nM,115.6; sec
same,Clotting time,[3]; exogenous hFIXa 8.8 nM,41.9 s
same,"Clotting time, sec",[3]; exogenous hFIXa 8.8 nM,45.4; sec
same,Percentage of control (FXa generation),[4]; +PL,100%
same,Percentage of control (FXa generation),[4]; +PL +anti-FIX IgG (Gla),58.0%
same,Percentage of control (FXa generation),[4]; −PL,90%
same,substrate for FIXa (LC-MS),[5],not a substrate for FIXa
same,Km,[6]; [7],0.016 ± 0.0035 µM
same,kcat,[6]; [7],0.000295 s⁻¹
same,Δ kcat,[6]; relative to buffer (1.0),197

# — patent US9486507B2, “Pro-coagulant compounds and methods of use thereof” (priority 2011, dated 2016)
